The values that follow are results of earlier work, collected in US20160052938A1, “SPIRO[3H-INDOLE-3,2'-PYRROLIDIN]-2(1H)-ONE COMPOUNDS AND DERIVATIVES AS MDM2-P53 INHIBITORS” (Boehringer Ingelheim International GmbH, priority 2014, published 2016).

The subject of this data set is acute lymphoblastic leukemia (ALL) xenograft models with mixed-lineage leukemia (MLL) rearrangement. The note with it: Carol et al. 2013; cited from earlier work.

As for `CCOc1cc(C(C)(C)C)ccc1C1=N[C@@](C)(c2ccc(Cl)cc2)[C@@](C)(c2ccc(Cl)cc2)N1C(=O)N1CCN(CCCS(C)(=O)=O)CC1` [RG-7112], the efficacy result was “particularly efficacious”.
